Experimental data from US20150105252A1, “SUBSTITUTED PYRAZOLES AS HERBICIDES” (E I DU PONT DE NEMOURS AND COMPANY, priority 2013, published 2015).

What was measured:
pigweed = assay: Test A preemergence; type: in vivo, Amaranthus retroflexus; conditions: preemergence; for Pigweed plant response rating (0 to 100 scale): visual injury approx. 10 days after treatment
How it was run: (§1)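 Pre- and postemergence greenhouse test; loam+sand; cpd in non-phytotox. solvent/surfactant; post at 1–2 leaf, 2–10 cm; visual score ~10 d, 0 = none, 100 = complete control.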

galium = assay: Test C preemergence; type: in vivo, Galium aparine
Text: (§2) Seeds of plant species selected from blackgrass (Alopecurus myosuroides), ryegrass, Italian (Italian ryegrass, Lolium multiflorum), wheat (winter wheat, Triticum aestivum), galium (catchweed bedstraw, Galium aparine), corn (Zea mays), crabgrass, large (large crabgrass, Digitaria sanguinalis), foxtail, giant (giant foxtail, Setaria faberii), johnsongrass (Sorghum halepense), lambsquarters (Chenopodium album), morningglory (Ipomoea coccinea), nutsedge, yellow (yellow nutsedge, Cyperus esculentus), pigweed (redroot pigweed, Amaranthus retroflexus), ragweed (common ragweed, Ambrosia elation), soybean (Glycine max), barnyardgrass (Echinochloa crus-galli), oilseed rape (Brassica napus), waterhemp (common waterhemp, Amaranthus rudis), oat, wild (wild oat, Avena fatua), kochia (Kochia scoparia), Surinam grass (Brachiaria decumbens), foxtail, green (green foxtail, Setaria viridis), goosegrass (Eleusine indica), bromegrass, downy (downy bromegrass, Bromus tectorum), nightshade (eastern black nightshade, Solanum ptycanthum), cocklebur (common cocklebur, Xanthium strumarium), cupgrass, woolly (woolly cupgrass, Eriochloa villosa), bermudagrass (Cynodon dactylon), sunflower, (common oilseed sunflower, Helianthus annuus), Russian thistle (Salsola kali), and velvetleaf (Abutilon theophrasti) were planted into a blend of loam soil and sand and treated preemergence with test chemicals formulated in a non-phytotoxic solvent mixture which included a surfactant.
(§3) At the same time, plants selected from these crop and weed species and also chickweed (common chickweed, Stellaria media), canarygrass (littleseed canarygrass, Phalaris minor), and deadnettle (henbit deadnettle, Lamium amplexicaule), were planted in pots containing Redi-Earth® planting medium (Scotts Company, 14111 Scottslawn Road, Marysville, Ohio 43041) comprising spaghnum peat moss, vermiculite, wetting agent and starter nutrients and treated with postemergence applications of test chemicals formulated in the same manner. Plants ranged in height from 2 to 18 cm (1- to 4-leaf stage) for postemergence treatments. Treated plants and controls were maintained in a greenhouse for 13 to 15 days, after which time all species were compared to controls and visually evaluated. Plant response ratings, summarized in Table C, are based on a scale of 0 to 100 where 0 is no effect and 100 is complete control. A dash (-) response means no test result.

ducksalad = assay: Test B flood; type: in vivo, Heteranthera limosa; conditions: 250 g ai/ha, visual rating on 0 to 100 scale (0 no effect, 100 complete control), 13 to 15 days
How it was run: (§4)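 Visual ratings on a 0–100 scale, where 0 means no effect and 100 means complete control, were assigned by comparison with controls 13 to 15 days after treatment. Compounds went into paddy water over 2-leaf plants flooded to 3 cm.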

wheat [1] = assay: Test C preemergence; type: in vivo, Triticum aestivum
Text: as §2, §3

corn = assay: Test A postemergence; type: in vivo, Zea mays
How it was run: as §1

wheat [2] = assay: Test A postemergence; type: in vivo, Triticum aestivum
How it was run: as §1

waterhemp = assay: Test C preemergence; type: in vivo, Amaranthus rudis
Text: as §2, §3

rice = assay: Test B flood; type: in vivo, Oryza sativa; conditions: 250 g ai/ha, visual rating on 0 to 100 scale (0 no effect, 100 complete control), 13 to 15 days
How it was run: as §4

lambsquarters = assay: Test C preemergence; type: in vivo, Chenopodium album
Text: as §2, §3

crabgrass, large [3] = assay: Test A preemergence; type: in vivo, Digitaria sanguinalis; conditions: preemergence; for Crabgrass, Large plant response rating (0 to 100 scale): visual injury approx. 10 days after treatment
How it was run: as §1

crabgrass, large [4] = assay: Test A postemergence; type: in vivo, Digitaria sanguinalis
How it was run: as §1

[5] = 125 g ai/ha, visual injury, 0 to 100 scale, approx. 10 days
[6] = 500 g ai/ha, visual injury after approx. 10 days, 0 to 100 scale (0 no effect, 100 complete control)
[7] = preemergence, 31 g ai/ha, visual rating, scale 0 to 100 (0 no effect, 100 complete control), 13 to 15 days
[8] = preemergence, 62 g ai/ha, scale 0 to 100 (0 no effect, 100 complete control), 13 to 15 days
[9] = preemergence, 125 g ai/ha, scale 0 to 100, 0 is no effect, 100 is complete control
[10] = Postemergence, 500 g ai/ha, 0 to 100 scale (0 no effect, 100 complete control)
[11] = postemergence, 125 g ai/ha, about 10 days, visual rating on 0 to 100 scale (0 no effect, 100 complete control)
[12] = preemergence, 125 g ai/ha, 13 to 15 days, scale 0 to 100, 0 = no effect, 100 = complete control
[13] = preemergence, 250 g ai/ha, scale 0 to 100, 0 is no effect, 100 is complete control
[14] = Postemergence, 125 g ai/ha, 0 to 100 scale, 0 no effect, 100 complete control
[15] = Preemergence, rate head not shown (block before 16 g ai/ha), scale 0 to 100

CCONC(=O)c1cc(CC)n(Cc2cc(C(F)(F)F)no2)n1 [Compound 125]
Pigweed plant response rating (pigweed; [5]): 100
Pigweed plant response rating (pigweed; [6]): 100
Plant response rating (scale of 0 to 100), Galium (galium; Preemergence, 250 g ai/ha): 90
Galium plant response rating (galium; [7]): 80
Galium plant response rating (galium; [8]): 85
Galium plant response rating (galium; [9]): 100
Plant response rating, Ducksalad (ducksalad): 60
Plant response rating (scale of 0 to 100), Wheat (wheat [1]; Preemergence, 250 g ai/ha): 50
Wheat plant response rating (wheat [1]; [7]): 0
Wheat plant response rating (wheat [1]; [8]): 0
Wheat plant response rating (wheat [1]; [9]): 5
Corn plant response rating (corn; [10]): 90
Corn plant response rating (corn; [11]): 30
Wheat plant response rating (wheat [2]; [10]): 60
Wheat plant response rating (wheat [2]; [11]): 0
Plant response rating (scale of 0 to 100), Waterhemp (waterhemp; Preemergence, 250 g ai/ha): 90
Waterhemp plant response rating (waterhemp; [7]): 65
Waterhemp plant response rating (waterhemp; [8]): 65
Waterhemp plant response rating (waterhemp; [9]): 85
Plant response rating, Rice (rice): 10
Plant response rating (scale of 0 to 100), Lambsquarters (lambsquarters; Preemergence, 250 g ai/ha): 100
Lambsquarters plant response rating (lambsquarters; [7]): 15
Lambsquarters plant response rating (lambsquarters; [8]): 35
Lambsquarters plant response rating (lambsquarters; [9]): 75

O=C(NCC(F)(F)F)c1cc(CCCl)n(Cc2ccnc(C(F)(F)F)c2)n1 [Compound 143]
Pigweed plant response rating (pigweed; [5]): 100
Pigweed plant response rating (pigweed; [6]): 100
Crabgrass, Large plant response rating (crabgrass, large [3]; [5]): 100
Crabgrass, Large plant response rating (crabgrass, large [3]; [6]): 100
Galium plant response rating (galium; [7]): 90
Galium plant response rating (galium; [8]): 100
Plant response rating, Galium (galium; [12]): 95
Galium plant response rating (galium; [13]): 100
Plant response rating, Ducksalad (ducksalad): 100
Wheat plant response rating (wheat [1]; [7]): 40
Wheat plant response rating (wheat [1]; [8]): 60
Plant response rating, Wheat (wheat [1]; [12]): 80
Wheat plant response rating (wheat [1]; [13]): 85
Corn plant response rating (corn; [10]): 90
Corn plant response rating (corn; [11]): 60
Wheat plant response rating (wheat [2]; [10]): 80
Wheat plant response rating (wheat [2]; [11]): 60
Crabgrass, Large plant response rating (crabgrass, large [4]; [10]): 90
Crabgrass, Large plant response rating (crabgrass, large [4]; [11]): 90
Waterhemp plant response rating (waterhemp; [7]): 98
Waterhemp plant response rating (waterhemp; [8]): 98
Plant response rating, Waterhemp (waterhemp; [12]): 100
Waterhemp plant response rating (waterhemp; [13]): 100
Plant response rating, Rice (rice): 25

CCCNC(=O)c1cc(CCCl)n(Cc2ccnc(C(F)(F)F)c2)n1 [Compound 145]
Pigweed plant response rating (0 to 100 scale) (pigweed; 125 g ai/ha): 100
Pigweed plant response rating (pigweed; [6]): 100
Crabgrass, Large plant response rating (0 to 100 scale) (crabgrass, large [3]; 125 g ai/ha): 100
Crabgrass, Large plant response rating (crabgrass, large [3]; [6]): 100
Galium plant response rating (galium; [7]): 90
Galium plant response rating (galium; [8]): 95
Plant response rating, Galium (galium; [12]): 95
Galium plant response rating (galium; [13]): 100
Plant response rating, Ducksalad (ducksalad): 100
Wheat plant response rating (wheat [1]; [7]): 5
Wheat plant response rating (wheat [1]; [8]): 40
Plant response rating, Wheat (wheat [1]; [12]): 50
Wheat plant response rating (wheat [1]; [13]): 90
Corn plant response rating (corn; [10]): 90
Corn plant response rating (corn; [11]): 60
Wheat plant response rating (wheat [2]; [10]): 80
Wheat plant response rating (wheat [2]; [11]): 50
Crabgrass, Large plant response rating (crabgrass, large [4]; [10]): 90
Crabgrass, Large plant response rating (crabgrass, large [4]; [11]): 90
Waterhemp plant response rating (waterhemp; [7]): 98
Waterhemp plant response rating (waterhemp; [8]): 100
Plant response rating, Waterhemp (waterhemp; [12]): 100
Waterhemp plant response rating (waterhemp; [13]): 100
Plant response rating, Rice (rice): 25

CCNC(=O)c1cc(CCCl)n(Cc2ccnc(C(F)(F)F)c2)n1 [Compound 179]
Pigweed plant response rating (0 to 100 scale) (pigweed; 125 g ai/ha): 100
Pigweed plant response rating (pigweed; [6]): 100
Crabgrass, Large plant response rating (0 to 100 scale) (crabgrass, large [3]; 125 g ai/ha): 100
Crabgrass, Large plant response rating (crabgrass, large [3]; [6]): 100
Galium plant response rating (galium; [7]): 98
Galium plant response rating (galium; [8]): 100
Plant response rating, Galium (galium; [12]): 100
Galium plant response rating (galium; [13]): 100
Plant response rating, Ducksalad (ducksalad): 100
Wheat plant response rating (wheat [1]; [7]): 0
Wheat plant response rating (wheat [1]; [8]): 0
Plant response rating, Wheat (wheat [1]; [12]): 80
Wheat plant response rating (wheat [1]; [13]): 85
Corn plant response rating (corn; [10]): 90
Corn plant response rating (corn; [11]): 50
Wheat plant response rating (wheat [2]; [10]): 70
Wheat plant response rating (wheat [2]; [11]): 30
Crabgrass, Large plant response rating (crabgrass, large [4]; [10]): 90
Crabgrass, Large plant response rating (crabgrass, large [4]; [11]): 90
Waterhemp plant response rating (waterhemp; [7]): 100
Waterhemp plant response rating (waterhemp; [8]): 100
Plant response rating, Waterhemp (waterhemp; [12]): 100
Waterhemp plant response rating (waterhemp; [13]): 100
Plant response rating, Rice (rice): 0
Lambsquarters plant response rating (lambsquarters; [7]): 90
Lambsquarters plant response rating (lambsquarters; [8]): 100
Plant response rating, Lambsquarters (lambsquarters; [12]): 100
Lambsquarters plant response rating (lambsquarters; [13]): 100

CCONC(=O)c1cc(OCC)n(Cc2ccnc(C(F)(F)F)c2)n1 [Compound 195]
Pigweed plant response rating (0 to 100 scale) (pigweed; 125 g ai/ha): 100
Pigweed plant response rating (pigweed; [6]): 100
Crabgrass, Large plant response rating (0 to 100 scale) (crabgrass, large [3]; 125 g ai/ha): 100
Crabgrass, Large plant response rating (crabgrass, large [3]; [6]): 100
Galium plant response rating (galium; [7]): 0
Galium plant response rating (galium; [8]): 85
Plant response rating, Galium (galium; [12]): 95
Galium plant response rating (galium; [13]): 100
Plant response rating, Ducksalad (ducksalad): 95
Wheat plant response rating (wheat [1]; [7]): 0
Wheat plant response rating (wheat [1]; [8]): 45
Plant response rating, Wheat (wheat [1]; [12]): 85
Wheat plant response rating (wheat [1]; [13]): 90
Corn plant response rating (corn; [10]): 90
Corn plant response rating (corn; [11]): 80
Wheat plant response rating (wheat [2]; [14]): 90
Wheat plant response rating (wheat [2]; [10]): 90
Crabgrass, Large plant response rating (crabgrass, large [4]; [10]): 100
Crabgrass, Large plant response rating (crabgrass, large [4]; [11]): 80
Waterhemp plant response rating (waterhemp; [8]): 100
Plant response rating, Waterhemp (waterhemp; [12]): 100
Waterhemp plant response rating (waterhemp; [13]): 100
Plant response rating, Rice (rice): 10

CCc1cc(C(=O)NC2CC2)nn1Cc1cc(C(F)(F)C(F)(F)F)nn1C [Compound 226]
Pigweed plant response rating (0 to 100 scale) (pigweed; 125 g ai/ha): 100
Crabgrass, Large plant response rating (0 to 100 scale) (crabgrass, large [3]; 125 g ai/ha): 100
Crabgrass, Large plant response rating (crabgrass, large [3]; [6]): 100
Plant response rating, Galium (galium; [15]): 0
Galium plant response rating (galium; [8]): 90
Plant response rating, Galium (galium; [12]): 80
Galium plant response rating (galium; [13]): 90
Plant response rating, Ducksalad (ducksalad): 90
Plant response rating, Wheat (wheat [1]; [15]): 15
Wheat plant response rating (wheat [1]; [8]): 0
Plant response rating, Wheat (wheat [1]; [12]): 0
Wheat plant response rating (wheat [1]; [13]): 10
Corn plant response rating (corn; [14]): 50
Corn plant response rating (corn; [10]): 80
Wheat plant response rating (wheat [2]; [14]): 60
Wheat plant response rating (wheat [2]; [10]): 90
Crabgrass, Large plant response rating (crabgrass, large [4]; [14]): 70
Crabgrass, Large plant response rating (crabgrass, large [4]; [10]): 90
Plant response rating, Waterhemp (waterhemp; [15]): 100
Waterhemp plant response rating (waterhemp; [8]): 100
Plant response rating, Waterhemp (waterhemp; [12]): 100
Waterhemp plant response rating (waterhemp; [13]): 100
Plant response rating, Rice (rice): 30
Plant response rating, Lambsquarters (lambsquarters; [15]): 100
Lambsquarters plant response rating (lambsquarters; [8]): 100
Plant response rating, Lambsquarters (lambsquarters; [12]): 100
Lambsquarters plant response rating (lambsquarters; [13]): 100
